Reference: PMC12758333 (Autophagy, 2025)

Biological target: T1, HMGB1 (HMGB1-His) (Homo sapiens, UniProt P09429)
T1 sequence (P09429 1-215): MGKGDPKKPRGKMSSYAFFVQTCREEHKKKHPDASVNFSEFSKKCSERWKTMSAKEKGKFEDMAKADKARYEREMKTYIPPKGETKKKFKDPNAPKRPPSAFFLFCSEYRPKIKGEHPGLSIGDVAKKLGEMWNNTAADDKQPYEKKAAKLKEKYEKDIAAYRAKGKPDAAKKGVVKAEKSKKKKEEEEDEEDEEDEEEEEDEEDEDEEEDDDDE
Test: microscale thermophoresis
Assay type: binding

- Kd: 65.5 µM
Compound: CN1CCN(c2ccc(C(=O)Nc3n[nH]c4ccc(Cc5cc(F)cc(F)c5)cc34)c(NC3CCOCC3)c2)CC1 [entrectinib]
